We go through three compounds from patent US20030224074A1, “Composition for the protection and regeneration of nerve cells containing the extract of Scutellaria Radix” (EUGENBIO INC., priority 2001, published 2003).

Entries after “also recorded” stand apart in the source; their conditions may differ.

The test system of one test is HiB5 cells. Kind of test: Induction of differentiation of HiB5 neuronal stem cells (neurofilament immunostaining, confocal microscope). It counts as cell-based, white rat. As for the experimental part: A positive control group was treated with bFGF to induce the differentiation into nerve cells.
Cell culture medium was prepared by adding a mixture of 10% FBS (fetal bovine serum), penicillin/streptomycin, glutamine and sodium pyruvate (0.11 g/L) to DMEM. On differentiating at 39 C, another cell culture medium was prepared by adding pyruvate to a serum-free medium (N2, containing DMEM/F12, insulin, transferrin, Putreseine and BSA; Botten Stein & Sato., 1979).
Tissue sections were fixed with 4% paraformaldehyde and cryosected to a thickness of […]. The cryosected tissue sections were stained with nerve cell- or astrocyte-labeled antibody and FITC-labeled secondary antibody before examining under a confocal microscope. In order to stain with nerve cell-labeled antibody, cultured cells were fixed with 4% paraformaldehyde for 20 minutes, permeated in 0.5% NP-40 for 5 minutes, and blocked using 1% BSA solution for 30 minutes. […]
The cultured cells were immunostained with nerve cell-specific labeled molecule, and then neurite growth was observed under a confocal microscope. […] The differentiation degree was measured by double-staining neurites with nerve cell-specific labeled molecule (anti-neurofilament antibody) and FITC-labeled secondary antibody (green), followed by staining cell nuclei with propidium iodide (red).

A further test relates to SH-SY5Y. Kind of test: Neurite regeneration in human neuroblastoma SH-SY5Y. It counts as cell-based. Conditions: extract 50 μg/ml, retinoic acid 50 μM. The protocol: Retinoic acid and NGF inducing neurite growth were used as positive control groups.
(§1) PC12 cells and SH-SY5Y cells were incubated in DMEM supplemented with 10% FBS. In order to differentiate the cells, NGF or retinoic acid was treated in a serum-free medium.
(§2) Retinoic acid (50 μM) and NGF (50 ng/ml) inducing neurite growth were used as positive controls.

For a further test, the system named is PC12 cells. Kind of test: Neurite regeneration and quantitative comparison of neurites in PC12 cell line. Type of test: cell-based, rat. Conditions: NGF 50 ng/ml, 3 days. The protocol:
as §1, §2
Subsequently, the length of neurites in each group was measured.
2) Differentiation index was scored as follows: no neurite expression (0), the length of expressed neurites was less than the diameter of cell bodies (1), the length of expressed neurites was similar to the diameter of cell bodies (2), the length of expressed neurites was less than two times as long as the diameter of cell bodies (3), and the length of expressed neurites was more than two times as long as the diameter of cell bodies, or the expressed neurites form synapses together with other nerve cells (4). 200 differentiated cells from each microculture well were defined as one unit, and five units were statistically analyzed.

With “bFGF: basic fibroblast growth factor, positive control inducing differentiation of HiB5 cells into nerve cells”, in the test with HiB5 cells (bFGF 20 ng/ml), the cell survival result is on record as “increased”. Moreover, the “differentiation into nerve cells” value in the test with HiB5 cells (extract 50 μg/ml or bFGF 20 ng/ml) was “induced the differentiation into nerve cells; also recorded: differentiated into nerve cells”.

In the case of `CC1=C(/C=C/C(C)=C/C=C/C(C)=C/C(=O)O)C(C)(C)CCC1` [Retinoic acid], the “Average (%) of differentiated cells” value in the test with SH-SY5Y amounted to 81.59%.

Regarding “NGF: Nerve Growth Factor, positive control inducing neurite growth in PC12 cells”, in the test on PC12 cells, the development of neurites result is reported as “development of neurites”.
